Results reported in paper PMC8980701 (Neuropharmacology, 2020).
Counter-ions that a name gives are not always drawn.

How the values were obtained:
Format in all cases: in vivo, male Sprague-Dawley rats
[1] = tested on: cocaine self-administration; test: Cocaine self-administration; settings: for Active Lever Presses / Inactive Lever Presses: cocaine 0.25 mg/kg/inf, mean ± SEM
cocaine-seeking behavior = test: Cocaine-seeking behavior test
[2] = Pharmacokinetics in plasma after single s.c. dose, alone or in combination; settings: for half-life: t1/2; for concentration at 0 h / concentration at 15 min / concentration at 30 min / concentration at 60 min / concentration at 120 min / concentration at 180 min / concentration at 240 min / concentration at 360 min: Plasma concentration
[3] = lorcaserin 0.5 mg/kg s.c., 15 min pretreatment
[4] = lorcaserin 1 mg/kg s.c., 15 min pretreatment
[5] = rat plasma, single dose 0.5 mg/kg s.c., drug alone, mean ± SEM
[6] = rat plasma, single dose 1 mg/kg s.c., drug alone, mean ± SEM
[7] = rat plasma, single dose 3 mg/kg s.c., drug alone, mean ± SEM
[8] = pimavanserin 3 mg/kg s.c., 30 min pretreatment
[9] = male, Sprague-Dawley, rat, in vivo, sc, 0.5 mg/kg
[10] = male, Sprague-Dawley, rat, in vivo, sc, 1 mg/kg
[11] = male, Sprague-Dawley, rat, in vivo, sc, 3 mg/kg
[12] = male, Sprague-Dawley, rat, in vivo, sc, 10 mg/kg

In the case of `C[C@H]1CNCCc2ccc(Cl)cc21` [Lorcaserin, (1R)-8-chloro-2,3,4,5-tetrahydro-1-methyl-1H-3-benzazepine], the “Effect on cocaine intake (infusions)” value ([1]; acute lorcaserin 1 mg/kg, vs. control, p < 0.05, Fig. 1B) is reported as “suppressed cocaine intake”, the “Active Lever Presses” value [1, 3] is reported as 536.23 ± 16.03 and the “Inactive Lever Presses” value [1, 3] is reported as 2.08 ± 0.40. For the same compound, the “Active Lever Presses” value [1, 4] was 492.46 ± 18.99, the “Inactive Lever Presses” value [1, 4] was 3.00 ± 0.91 and the “Increase of latency to the first response vs. control” value (cocaine-seeking behavior; acute lorcaserin 1 mg/kg) was ~ 6.7 fold. The “Decrease of cue-reinforced lever presses vs. control” value (shortened to “Decrease”) (cocaine-seeking behavior; acute lorcaserin 1 mg/kg, FA day 10, p < 0.05) was ~ 64.4%, the “Suppression of inactive lever presses vs. control” value (cocaine-seeking behavior; acute lorcaserin 1 mg/kg, p < 0.05) was ~ 64.6% and the “Latency to the first response” value (cocaine-seeking behavior; acute lorcaserin 1 mg/kg, p < 0.05 vs. control (14.39 ± 2.41 s)) was 95.83 ± 35.78 s. The “Suppression of inactive lever presses vs. control” value (cocaine-seeking behavior; repeated lorcaserin 1 mg/kg) was “n.s”, the “Decrease” value (cocaine-seeking behavior; repeated lorcaserin 1 mg/kg twice daily for 10 days, FA day 10, p < 0.05) was ~ 36.4% and the “Latency to the first response” value (cocaine-seeking behavior; repeated lorcaserin 1 mg/kg, n.s. vs. control (14.39 ± 2.41 s)) was 30.15 ± 5.52 s. It also gave an AUCExtrap [2, 5] of 12.68 ± 2.45%, a λ [2, 5] of 0.31 ± 0.03 h⁻¹ and an AUCExtrap [2, 6] of 8.06 ± 0.47%. The λ [2, 6] was 0.39 ± 0.02 h⁻¹, the AUCExtrap [2, 7] was 7.97 ± 0.50% and the λ [2, 7] was 0.38 ± 0.01 h⁻¹.
For `CC(C)COc1ccc(CNC(=O)N(Cc2ccc(F)cc2)C2CCN(C)CC2)cc1` [Pimavanserin], the “Effect on cocaine infusions” value ([1]; acute pimavanserin 0.3, 1, 3 mg/kg, vs. control, Fig. 1A) was “No main effect”, the “Active Lever Presses” value [1, 8] was 523.00 ± 54.57 and the “Inactive Lever Presses” value [1, 8] was 3.44 ± 1.74. For the same compound, the “Effect on inactive lever presses” value (cocaine-seeking behavior; acute and repeated pimavanserin 3 mg/kg, FA day 10) was “No main effect”, the “Decrease” value (cocaine-seeking behavior; acute pimavanserin 3 mg/kg, FA day 10, p < 0.05) was ~ 41.4% and the “Latency to the first response” value (cocaine-seeking behavior; acute pimavanserin 3 mg/kg, n.s. vs. control (14.39 ± 2.41 s)) was 29.83 ± 5.43 s. The “Increase of latency to the first response vs. control” value (cocaine-seeking behavior; repeated pimavanserin 3 mg/kg) was ~ 2.5 fold, the “Decrease” value (cocaine-seeking behavior; repeated pimavanserin 3 mg/kg twice daily for 10 days, FA day 10, p < 0.05) was ~ 27.1% and the “Latency to the first response” value (cocaine-seeking behavior; repeated pimavanserin 3 mg/kg, p < 0.05 vs. control (14.39 ± 2.41 s)) was 35.25 ± 7.81 s. For the same compound, the AUC0-inf [2, 9] was 15.02 ± 0.32 ng·h/mL, the AUC0-t [2, 9] was 14.40 ± 0.31 ng·h/mL and the AUCExtrap [2, 9] was 3.89 ± 1.42%. For the same compound, the Cl/F [2, 9] was 33.40 ± 0.73 L/h/kg, the Cmax [2, 9] was 12.17 ± 0.38 ng/mL and the “Half-life, t1/2” value [2, 9] was 1.29 ± 0.45 h. The Tmax [2, 9] was 17.4 ± 2.4 min, the λ [2, 9] was 0.76 ± 0.14 h⁻¹ and the Plasma concentration ([2]; male, Sprague-Dawley, rat, in vivo, sc, 0.5 mg/kg, 0 h) was 0.08 ± 0.05 ng/mL. For the same compound, the Plasma concentration ([2]; male, Sprague-Dawley, rat, in vivo, sc, 0.5 mg/kg, 15 min) was 12.15 ± 0.39 ng/mL, the Plasma concentration ([2]; male, Sprague-Dawley, rat, in vivo, sc, 0.5 mg/kg, 30 min) was 9.93 ± 0.50 ng/mL and the Plasma concentration ([2]; male, Sprague-Dawley, rat, in vivo, sc, 0.5 mg/kg, 60 min) was 5.40 ± 0.23 ng/mL. It also gave a Plasma concentration ([2]; male, Sprague-Dawley, rat, in vivo, sc, 0.5 mg/kg, 120 min) of 2.09 ± 0.13 ng/mL, a Plasma concentration ([2]; male, Sprague-Dawley, rat, in vivo, sc, 0.5 mg/kg, 180 min) of 0.86 ± 0.11 ng/mL and a Plasma concentration ([2]; male, Sprague-Dawley, rat, in vivo, sc, 0.5 mg/kg, 240 min) of 0.45 ± 0.10 ng/mL. For the same compound, the Plasma concentration ([2]; male, Sprague-Dawley, rat, in vivo, sc, 0.5 mg/kg, 360 min) was 0.13 ± 0.06 ng/mL, the AUC0-inf [2, 10] was 41.72 ± 2.7 ng·h/mL and the AUC0-t [2, 10] was 41.27 ± 2.64 ng·h/mL. For the same compound, the AUCExtrap [2, 10] was 1.09 ± 0.28%, the Cl/F [2, 10] was 24.55 ± 1.81 L/h/kg and the Cmax [2, 10] was 30.13 ± 2.17 ng/mL. The “Half-life, t1/2” value [2, 10] was 0.89 ± 0.05 h, the λ [2, 10] was 0.79 ± 0.04 h⁻¹ and the Plasma concentration ([2]; male, Sprague-Dawley, rat, in vivo, sc, 1 mg/kg, 0 h) was 0.05 ± 0.03 ng/mL. For the same compound, the Plasma concentration ([2]; male, Sprague-Dawley, rat, in vivo, sc, 1 mg/kg, 15 min) was 30.13 ± 2.17 ng/mL, the Plasma concentration ([2]; male, Sprague-Dawley, rat, in vivo, sc, 1 mg/kg, 30 min) was 24.50 ± 1.59 ng/mL and the Plasma concentration ([2]; male, Sprague-Dawley, rat, in vivo, sc, 1 mg/kg, 60 min) was 16.8 ± 1.02 ng/mL. For the same compound, the Plasma concentration ([2]; male, Sprague-Dawley, rat, in vivo, sc, 1 mg/kg, 120 min) was 6.34 ± 0.39 ng/mL, the Plasma concentration ([2]; male, Sprague-Dawley, rat, in vivo, sc, 1 mg/kg, 180 min) was 3.55 ± 0.81 ng/mL and the Plasma concentration ([2]; male, Sprague-Dawley, rat, in vivo, sc, 1 mg/kg, 240 min) was 1.12 ± 0.14 ng/mL. The Plasma concentration ([2]; male, Sprague-Dawley, rat, in vivo, sc, 1 mg/kg, 360 min) was 0.35 ± 0.08 ng/mL, the AUCExtrap [2, 11] was 4.26 ± 0.68% and the λ [2, 11] was 0.59 ± 0.03 h⁻¹. It also gave an AUC0-inf ([2]; male, Sprague-Dawley, rat, in vivo, sc, 3 mg/kg, AUC0-inf) of 198 ± 8.33 ng·h/mL, an AUC0-t ([2]; male, Sprague-Dawley, rat, in vivo, sc, 3 mg/kg, AUC0-t) of 189 ± 7.75 ng·h/mL and a Cmax ([2]; male, Sprague-Dawley, rat, in vivo, sc, 3 mg/kg, CMAX) of 79.5 ± 3.76 ng/mL. It also gave a CL/F [2, 11] of 255 mL/min/kg, a half-life ([2]; male, Sprague-Dawley, rat, in vivo, sc, 3 mg/kg, Half-life) of 70.8 ± 3 min and a concentration at 0 h [2, 11] of 0.02 ± 0.02 ng/mL. For the same compound, the concentration at 15 min [2, 11] was 71.1 ± 5.89 ng/mL, the concentration at 30 min [2, 11] was 74.5 ± 5.1 ng/mL and the concentration at 60 min [2, 11] was 63.4 ± 3.59 ng/mL. For the same compound, the concentration at 120 min [2, 11] was 39.8 ± 2.4 ng/mL, the concentration at 180 min [2, 11] was 27.8 ± 2.37 ng/mL and the concentration at 240 min [2, 11] was 15.7 ± 1.48 ng/mL. It also gave a concentration at 360 min [2, 11] of 4.85 ± 0.62 ng/mL, a Tmax ([2]; male, Sprague-Dawley, rat, in vivo, sc, 3 mg/kg, TMAX) of 22.8 ± 3.6 min and an AUCExtrap [2, 12] of 32.22 ± 4.18%. It also gave a λ [2, 12] of 0.21 ± 0.02 h⁻¹, an AUC0-inf ([2]; male, Sprague-Dawley, rat, in vivo, sc, 10 mg/kg, AUC0-inf) of 1290 ± 112 ng·h/mL and an AUC0-t ([2]; male, Sprague-Dawley, rat, in vivo, sc, 10 mg/kg, AUC0-t) of 858 ± 54.7 ng·h/mL. For the same compound, the Cmax ([2]; male, Sprague-Dawley, rat, in vivo, sc, 10 mg/kg, CMAX) was 213 ± 15.9 ng/mL, the CL/F [2, 12] was 135 mL/min/kg and the half-life ([2]; male, Sprague-Dawley, rat, in vivo, sc, 10 mg/kg, Half-life) was 218 ± 32.4 min. It also gave a concentration at 0 h [2, 12] of 0.09 ± 0.41 ng/mL, a concentration at 15 min [2, 12] of 170 ± 18.8 ng/mL and a concentration at 30 min [2, 12] of 190 ± 19.9 ng/mL. For the same compound, the concentration at 60 min [2, 12] was 208 ± 15.6 ng/mL, the concentration at 120 min [2, 12] was 179 ± 11.6 ng/mL and the concentration at 180 min [2, 12] was 154 ± 15.1 ng/mL. It also gave a concentration at 240 min [2, 12] of 116 ± 7.99 ng/mL, a concentration at 360 min [2, 12] of 79.9 ± 6.24 ng/mL and a Tmax ([2]; male, Sprague-Dawley, rat, in vivo, sc, 10 mg/kg, TMAX) of 57.6 ± 15 min. It also gave a Tmax ([2]; male, Sprague-Dawley, rat, in vivo, sc, TMAX) of 15 to 60 min and a half-life ([2]; male, Sprague-Dawley, rat, in vivo, sc) of 53 to 218 min.
For `Cc1cc2c(cc1Cl)N(C(=O)Nc1ccc(Oc3cccnc3C)nc1)CC2` [SB242084, 6-chloro-5-methyl-1-[[2-(2-methylpyrid-3-yloxy)pyrid-5-yl]carbamoyl] indolinedihydrochloride], the “Effect on lorcaserin-evoked suppression of cocaine intake” value ([1]; SB242084 0.5 mg/kg i.p. plus lorcaserin 1 mg/kg, p < 0.05, Fig. 1B) was “prevented this lorcaserin-evoked suppression of cocaine intake”.
